Laboratory results from US4820713A, “Ketoalkanol esters of dihydrolysergic acid useful as 5HT receptor antagonists” (Eli Lilly and Company, priority 1988, dated 1989).
Counter-ions that a name gives are not always drawn.

Columns and labels:
5HT2 receptors [1] = conditions: in words; cited from earlier work
dopaminergic receptors = conditions: in words; Cohen I; cited from earlier work
[2] = test system: vascular alpha adrenergic receptors; conditions: in words; Cohen I; cited from earlier work
5HT2 receptors [3] = conditions: cited from earlier work
histaminergic receptors = conditions: in words; Cohen I; cited from earlier work
5HT2 receptors [4] = target: T1, 5HT2 receptors (Rattus norvegicus, UniProt P14842); assay: Apparent antagonist dissociation constant (-log KB) versus serotonin-induced contraction of isolated rat jugular vein; set-up: species or system male Wistar rats; conditions: antagonist incubated one hour, 37° C., maleate salt, read-out: 5HT2 -Log Kb ± S.E. (converted)
T1 construct: external jugular veins and thoracic aortas dissected free of connective tissue; from tissue; host or cells: external jugular vein of male Wistar rats
T1 sequence (P14842 whole entry): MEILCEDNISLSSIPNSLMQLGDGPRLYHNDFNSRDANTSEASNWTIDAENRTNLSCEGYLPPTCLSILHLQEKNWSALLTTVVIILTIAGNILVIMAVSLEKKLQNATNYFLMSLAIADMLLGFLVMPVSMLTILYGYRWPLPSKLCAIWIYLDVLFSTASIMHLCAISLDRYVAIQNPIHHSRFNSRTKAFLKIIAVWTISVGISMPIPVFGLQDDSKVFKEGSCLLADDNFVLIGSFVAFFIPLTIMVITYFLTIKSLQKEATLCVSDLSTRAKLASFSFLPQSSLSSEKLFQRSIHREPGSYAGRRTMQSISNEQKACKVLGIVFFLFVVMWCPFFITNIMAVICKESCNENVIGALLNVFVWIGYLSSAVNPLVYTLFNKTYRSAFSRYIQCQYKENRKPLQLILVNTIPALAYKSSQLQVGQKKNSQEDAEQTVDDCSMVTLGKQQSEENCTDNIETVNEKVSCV
Description: An initial optimum resting force of 1 and 4 g was applied to the jugular vein and aorta, respectively. […] Exp. Ther., 205, 400 (1978). Alpha receptor antagonist activity was evaluated in the aorta.

blood pressure = conditions: in humans; ketanserin; cited from earlier work

For CC(O)C(C)OC(=O)[C@@H]1C[C@@H]2c3cccc4c3c(cn4C(C)C)C[C@H]2N(C)C1 (stereo partly drawn) [LY53857, 1-isopropyl-6-methyl-8β-(1-methyl-2-hydroxy)propoxycarbonyl-5R-ergoline], the “peripheral serotonin antagonist activity, ranking among Garbrecht compounds” value (5HT2 receptors [1]) is listed as “most active peripheral serotonin antagonist”, the “affinity for dopaminergic receptors” value (dopaminergic receptors) is listed as “minimal affinity” and the “affinity for vascular alpha adrenergic receptors” value [2] is listed as “minimal affinity”. The Kd (5HT2 receptors [3]; Cohen et al. J.P.E.T., 227, 327 (1983), read-out: Kdissoc. (5HT2 receptors)) was about 0.1 nM, the “antagonism of vascular contraction to serotonin” value (5HT2 receptors [3]; effect mediated by 5HT2 receptors, Cohen I) was “potent antagonist of vascular contraction to serotonin” and the “affinity for histaminergic receptors” value (histaminergic receptors) was “minimal affinity”.
CC(=O)[C@@H](C)OC(=O)[C@@H]1C[C@@H]2c3cccc4c3c(cn4C(C)C)C[C@H]2N(C)C1 [RCH(CH3)COCH3, R-1-methyl-2-oxopropyl 1-isopropyl-9,10-dihydrolysergate maleate] showed a Kb (5HT2 receptors [4]) of 0.355 nM.
CC(=O)[C@H](C)OC(=O)[C@@H]1C[C@@H]2c3cccc4c3c(cn4C(C)C)C[C@H]2N(C)C1 [SCH(CH3)COCH3, S-1-methyl-2-oxopropyl 1-isopropyl-9,10-dihydrolysergate] showed a Kb (5HT2 receptors [4]) of 0.269 nM.
In the case of O=C(c1ccc(F)cc1)C1CCN(CCn2c(=O)[nH]c3ccccc3c2=O)CC1 [ketanserin], the lower blood pressure (blood pressure) is listed as “lower blood pressure in humans”.
